According to US20200147039A1, “COMPOUNDS USEFUL IN INHIBITING HUMAN TREFOIL FACTOR 3” (NATIONAL UNIVERSITY OF SINGAPORE, priority 2017, published 2020):

system: MCF-7; assay: AlamarBlue cell viability assay, MCF7; assay type: cell-based, human; details: Homo sapiens, MCF7, MCF-7, AlamarBlue cell viability (Table 8)
Description: (A) Inhibitory concentration 50% (IC50) values for compound 43 in the MC cell lines are tabulated, using an AlamarBlue™ cell viability assay as previously described in Pandey V et al., Breast Cancer Res. 2014; 16(5):429. (B) Measured dose-dependent manner effect of compound 43 on the viability of MC cells (left-side, TFF3-high and right, TFF3-low) using AlamarBlue™ viability assay as previously described (ibid). (C) Apoptotic cell death of mammary carcinoma cell lines measured after treatment with 10 μM compound 43 using flow cytometry analysis at 24 hour as described previously in Keerthy H K et al., PloS one. 2014; 9(9):e107118. Annexin V-FITC staining is indicated on the X-axis and PI staining on the Y-axis. […] Acquisition of Annexin V and PI data were represented as percentage (%) in each quadrant. Note: CM, conditioned media; MCF10A and MCF12A, non-transformed immortalized-mammary epithelial cell line. Points are mean of triplicate experiments; bars, ±SD. Statistical significance was assessed by using an unpaired two-tailed Student's t test (P<0.05 was considered as significant) using GraphPad Prism5. Columns are mean of triplicate experiments; bars, ±SD. **P<0.001, *P<0.05.
The human immortalized mammary epithelial cell lines, MCF10A, and MCF12A; and immortalized hepatocellular epithelial cell line, LO2 were obtained from the American Type Culture Collection (ATCC, Rockville, Md.) and were cultured as per ATCC propagation instructions. MC cell lines, MCF7, T47D, BT474, BT20, MDA-MB-361, MDA-MB-436, MDA-MB-468, and MDA-MB-231; endometrial carcinoma cell lines, Ishikawa, ECC1, RL95-2 and AN3; hepatocellular carcinoma cell lines, Hep3B, H2P, and H2M; colon carcinoma cell lines, DLD-1, and Caco-2; and prostate carcinoma cell lines, PC3, LNCaP, and DU145 were obtained from the American Type Culture Collection (ATCC, Rockville, Md.). Pancreatic carcinoma cell lines, AsPC-1 and BxPC-3; Lung carcinoma cell lines, HCC-827, NCI-H1975, HCC-4006, PC-14, and NCI-H1299; and Thyroid carcinoma cell lines HTH83, CAL62, T238, and OGK-M were obtained from Prof. H. Phillip Koeffler's laboratory at The Cancer Science Institute of Singapore, National University of Singapore (NUS). Gastric carcinoma cell lines, AGS, MKN-28, MKN-45, and A2-528 were obtained from Prof. Yoshiaki Ito's laboratory at The Cancer Science Institute of Singapore, NUS. All cell lines were cultured as per ATCC propagation instructions.
The above synthesised compounds were initially evaluated against a range of carcinoma cells using an AlamarBlue™ cell viability assay (using the protocol discussed above). The tested compounds were generally efficacious at reducing the viability of various carcinoma cells compared to vehicle (DMSO) treated cells. Table 8 provides selected IC50 data for certain of the compounds synthesised herein against MCF-7.
In table 9 IC50 values of compound 43 compound library in several cancer cell lines are tabulated, using an AlamarBlue® cell viability assay as previously described in Pandey V et al., Breast Cancer Res. 2014; 16(5):429. Statistical analysis was assessed by using GraphPad Prism5. Note: NV, no value.

Question: For `COc1ccc2c3c(c(=O)oc2c1)C(c1ccc(-c2ccc(Cl)cc2)cc1)C(C#N)=C(N)O3` (stereo not drawn) [Compound 154], which IC50 is on record?
Answer: 5.74 µM

Question: For `COc1ccc(C2C(C#N)=C(NC(=O)c3ccc(C(F)(F)F)cc3)Oc3c2c(=O)oc2ccccc32)cc1-c1cnc(F)c(C)c1` (stereo not drawn) [Compound 102], which IC50 is on record?
Answer: 33 µM

Question: Which IC50 does the source give for `COc1ccc(C2C(C#N)=C(N)Oc3c2c(=O)oc2ccccc32)cc1-c1ccccc1` (stereo not drawn) [Compound 49] here?
Answer: 28.2 µM

Question: `Cc1cc(-c2ccc(C3C(C#N)=C(NC(=O)c4cc(Cl)ccc4Cl)Oc4c3c(=O)oc3ccccc43)cc2)cnc1F` (stereo not drawn) [Compound 100] was tested. Which IC50 did it give?
Answer: 177 µM

Question: `COc1ccc2c3c(c(=O)oc2c1)C(c1ccc(-c2cccnc2)cc1)C(C#N)=C(N)O3` (stereo not drawn) [Compound 143] was tested. Which IC50 did it give?
Answer: 0.685 µM

Question: Which IC50 does the source give for `COc1ccc(C2C(C#N)=C(N)Oc3c2c(=O)oc2ccccc32)cc1-c1cnc(F)c(C)c1` (stereo not drawn) [Compound 91] here?
Answer: 11.8 µM

Question: `Cc1cc(-c2ccc(C3C(C#N)=C(NS(=O)(=O)c4ccc([N+](=O)[O-])cc4)Oc4c3c(=O)oc3ccccc43)cc2)cnc1F` (stereo not drawn) [Compound 109] was tested. Which IC50 did it give?
Answer: 34.9 µM

Question: With `N#CC1=C(N)Oc2c(c(=O)oc3ccccc23)C1c1ccc(-c2ccc(C=O)o2)cc1F` (stereo not drawn) [Compound 136] as the molecule, how does the IC50 read?
Answer: 1.67 µM

Question: Which IC50 does the source give for `N#CC1=C(N)Oc2c(c(=O)oc3ccccc23)C1c1ccc(-c2cncnc2)cc1F` (stereo not drawn) [Compound 139] here?
Answer: 4.23 µM

Question: With `Cc1cc(-c2ccc(C3C(C#N)=C(N)Oc4c3c(=O)oc3ccc(F)cc43)cc2)cnc1Cl` (stereo not drawn) [Compound 147] as the molecule, how does the IC50 read?
Answer: 0.526 µM

Question: With `Cc1cc(-c2ccc(C3C(C#N)=C(NS(=O)(=O)c4ccccc4)Oc4c3c(=O)oc3ccccc43)cc2)cnc1F` (stereo not drawn) [Compound 107] as the molecule, how does the IC50 read?
Answer: 19.5 µM

Question: With `COc1ccc(CC(=O)NC2=C(C#N)C(c3ccc(-c4cnc(F)c(C)c4)cc3)c3c(c4ccccc4oc3=O)O2)cc1OC` (stereo not drawn) [Compound 99] as the molecule, how does the IC50 read?
Answer: 33.4 µM
